Measurements: US5242915A, “Formulation useful for the inhibition of massive release of cerebral glutamate” (Shionogi & Co., Ltd., priority 1991, dated 1993)
Entries after “also recorded” stand apart in the source; their conditions may differ. Like-named read-outs stand apart in the source and are kept apart here.

Experiments:
[1] = cited from earlier work; for antihypertensive, peripheral, cerebral and coronary vasodilating actions: background statement
[2] = tested on: vascular smooth muscle; details: background statement; cited from earlier work
[3] = tested on: cerebral release of glutamate; details: comparison, no data shown, cited from earlier work
[4] = tested on: DBA/2 Mouse; assay: Ultrasonically (sound)-induced convulsion in DBA/2 mouse; format: in vivo, mouse (DBA/2); details: for ED50: Mus musculus, one hour before ultrasonic treatment (70-90 db, 1 min), probit method, read-out: ED50 (anti-convulsant effect); for anti-convulsant effect, in words: sound/ultrasonically induced convulsion; for anticonvulsive effect (general statement): FIG. 3 and Table 1
Source text: Animal: Ten mice consisting of five each of male and female DBA/2 mice (weighing from 7 to 11 g) bred at the Aburahi Laboratories (Shionogi) at three weeks of age were used in a group.
One hour before the ultrasonic treatment, each mouse of test group orally received S-312-d as a solution in polyethylene glycol 400. To each mouse of control groups was orally administered either of Nicardipine, as a solution in polyethylene glycol 400, S-312-1, Nimodipine or Flunarizine, as a suspension in gum arabic. Convulsion was induced in mouse by an ultrasonic treatment (70-90 db, 1 min) and the number of tetanic death was observed. ED50 value of anti-convulsant effect of each compound was calculated by probit method using the […] as an indication.

[5] = NMDA channel antagonist; cited from earlier work
[6] = tested on: massive release of cerebral glutamate in hippocampal CAI region; assay: Effect on the ischemic release of glutamate in hippocampal CAI region (BCAO, microdialysis); format: in vivo, rat (SHRSP, stroke-prone spontaneously Hypertensive Rats); details: intraduodenal, 40 min before BCAO, S-312-d 0.3 mg/kg; for inhibition of the massive release of glutamate during BCAO: nilvadipine 3 mg/kg, nimodipine 3 mg/kg, FIG. 2
Source text: Thus, an experimental cerebral ischemia was caused in SHRSPs by the occlusion of both common carotid arteries (hereinafter, referred to as BCAO). During the ischemic period, a massive release of glutamate in hippocampal CAI region was observed (see, FIG. 1).
Reference compound: nilvadipine, and nimodipine Animal: Five male SHRSP bred at the Aburahi Laboratories (Shionogi) at ten to twelve weeks of age were used in a group. Animals were fed CA-1 (Nihon Clea) and tap water ad libitum.
Hippocampus CAI region was made ischemia by the occlusion of both common carotid arteries (BCAO) into rats as follows:
Rats were anesthetized with halothane (3%) and the cervical region proximal to abdomen was incised to expose the common carotid arteries. Both arteries were occluded with nylon threads with each end exposed at the back of the neck through either of two holes of a tube (double lumen PE tube, Natsume Seisakusho, & Co.). Occlusion was induced in the both common carotid arteries by pulling strongly each exposed end of threads. BCAO was stopped by gradually pulling down the each end of threads passed under arteries proximal to abdomen. During the ischemic period, the halothane inhalation was stopped.
The determination of the regional cerebral blood flow was conducted using a laser doppler tissue flow meter (LFA-2, Biomedical Science, Japan) with a needle-type sensor (450 μm in diameter) inserted into the hippocampal CA1 region opposite to the site where a microdialysis probe had been fixed. The blood flow during BCAO was estimated as almost negligible on the assumption that the blood flow after the death of rat is "0".
S-312-d (0.3 mg/kg), nilvadipine (3 mg/kg), or nimodipine (3 mg/kg) was dissolved into polyethylene glycol 400 and administered into duodenum in each rat at 40 min before BCAO.
Under the anesthesia with halothane (1-2%), rats were fixed on cerebral stereotaxic frame and equipped with an artificial respirator (1 cc/100 gbw×60 times/min), while being maintained at 37 ° C by settling a heating pad beneath the lower abdominal region. A hole was drilled on the exposed skull and a microdialysis probe (CMA/10, membrane length 2 mm, BAS, Sweden) was inserted gently. Measurement was started after 3 hr from the surgery in order to avoid the influence of tissue damage. The probe was perfused with Ringer's solution at a flow rate of 2 μl/min by a microdialysis pump (CMA/100, BAS, Sweden). The dialysates were collected for each 5-min perfusion and pooled. Sampling was started at 10 min before the BCAO. BCAO was continued for 20 min when it was stopped by loosening […] threads to allow cerebral circulation. The sampling was continued for 20 min after the discontinuation of the BCAO. Samples were then subjected to quantitative analysis for glutamate without further treatments.
The concentration of glutamate was determined by HPLC substantial in accordance with the HPLC-ECD method of Donzanti et al. (Life Sci. 43: 913 (1988)) The glutamate-containing sample was reacted with o-phthlaldehyde/β-mercaptoethanol solution for 2 min and injected into a reverse-phase column and eluted under the following conditions. The eluate was then analyzed for the presence of glutamate by an electrochemical measurement of oxidation-reduction current.
Column: C 18, particle size: 3 μm, 8 cm×4.6 mm
Mobile phase: a mixture of 0.1M phosphate buffer (pH 6.4), 0.13 mM Na2 EDTA, and 22% MeOH

[7] = tested on: pyramidal neurons of the hippocampal CAI region; assay: Delayed neuronal death during cerebral ischemia (density of living pyramidal neurons); format: in vivo, rat (SHRSP); details: for Density of Neurons, animals with 40-80 n/mm / Density of Neurons, animals with 80-120 n/mm / Density of Neurons, animals with <40 n/mm / Density of Neurons, animals with >120 n/mm: 7th day; for Density of Neurons, mean ± S.E.M: normal 160 ± 9, control 69 ± 10
Description: Animal: eight to twelve (n=8-12) male SHRSP bred at the Aburahi Laboratories (Shionogi) were used in a group. Animals were fed CA-1 (Nihon Clea) and tap water ad libitum.
S-312-d was dissolved into polyethylene glycol 400 solution and intraperitoneally administered to a SHRSP at 60 min before the introduction of a global cerebral ischemia. Cerebral ischemia was then caused in each rat for 20 min and stopped to allow cerebral circulation in the same manner as the above Experiment 1. For the histological observation on the delayed neuronal death, a fixation of tissue was conducted by perfusing the animal from the left ventricle using 4% paraformaldehyde at a flow rate of 10 ml/min by means of perista pump (AC-2110, ATTA) on the 7th day from the ischemia. After the removal of brain, cerebral region containing hippocampus was embedded in paraffin, from which sliced preparations of 4 μm thick were prepared. Each cerebral preparation was stained with hematoxylin-eosin and the density of the living pyramidal neurons (n/mm) was determined by counting the number of neurons per 1 mm length of the hippocampal CAI region under a light microscope. The data were expressed as the mean ±S.E.M. For the purpose of comparison, SHRSPs with or without ischemic maneuvering were both treated with propylene glycol, in exactly the same manner as the above.

[8] = oral, one hour before ultrasonic treatment
[9] = treated group (I), 0.01 mg/kg i.p. 60 min before ischemia (20 min), n = 12
[10] = treated group (II), 0.1 mg/kg i.p. 60 min before ischemia (20 min), n = 13

Which adverse reactions ([1]; U.S. Pat. No. 4,703,051) does the source give for `COC(=O)C1=C(C)Nc2scc(CC(C)C)c2C1c1cccc([N+](=O)[O-])c1` (racemic) [S-312, methyl 4,7-dihydro-3-isobutyl-6-methyl-4-(3-nitrophenyl)thieno[2,3-b]pyridine-5-carboxylate] here?
The adverse reactions was “lesser adverse reactions”.

And the “vasodilating, antihypertensive and coronary vasodilating effect” value ([1]; U.S. Pat. No. 4,703,051)?
The value was “potent antihypertensive and coronary vasodilating effect”.

What about the “antihypertensive, peripheral, cerebral and coronary vasodilating actions” value [1] of the same compound?
The value was “exhibit antihypertensive activity, as well as peripheral, cerebral, and coronary vasodilating actions”.

And the “Ca-blocking effect on vascular smooth muscle” value [2]?
The value was “selective Ca-blocking effect on vascular smooth muscle”.

For `NCC(CC(=O)O)c1ccc(Cl)cc1` (stereo not shown) [Baclofen], which “effect on ischemic release of glutamate” value [3] is on record?
Its value is “not the ischemic release”.

And the “effect on normal release of glutamate” value [3]?
The value was “inhibit the normal glutamate release”.

And the “effect on normal release of glutamate” value ([3]; listed as baclofen)?
Its value is “inhibits the normal release”.

For `Fc1ccc(C(c2ccc(F)cc2)N2CCN(C/C=C/c3ccccc3)CC2)cc1` [Flunarizine], which ED50 ([4]; oral) is on record?
Its ED50 is 48.1 mg/kg.

And the “anti-convulsant effect, in words” value [4]?
The value was “dose-dependent anti-convulsant effect”.

With `C[C@]12N[C@H](Cc3ccccc31)c1ccccc12` [MK-801] as the compound, how does the “toxic effects / clinical applicability” value [5] read?
Its value is “not clinically applicable because of serious toxic effects”.

With `COC(=O)C1=C(C)NC(C)=C(C(=O)OCCN(C)Cc2ccccc2)C1c1cccc([N+](=O)[O-])c1` (stereo not shown) [Nicardipine] as the compound, how does the “Anticonvulsive effect (maximum), at 20-80 mg/kg” value [4, 8] read?
The value was 30%.

And the “anticonvulsive effect (general statement)” value [4, 8]?
Its value is “less than 40%”.

For `COCCOC(=O)C1=C(C)NC(C)=C(C(=O)OC(C)C)C1c1cccc([N+](=O)[O-])c1` (stereo not shown) [Nimodipine, reference compound], which “inhibition of the massive release of glutamate during BCAO” value [6] is on record?
Its value is “only S-312-d was significantly effective; also recorded: neither nilvadipine nor nimodipine shows significant effect”.

What about the “Anticonvulsive effect (maximum), at 20-80 mg/kg” value [4, 8] of the same compound?
The value was 40%.

And the “anticonvulsive effect (general statement)” value [4, 8]?
The value was “less than 40%”.

With `COC(=O)C1=C(C)Nc2scc(CC(C)C)c2[C@@H]1c1cccc([N+](=O)[O-])c1` [S-312-1, methyl (-)-(4R)-4,7-dihydro-3-isobutyl-6-methyl-4-(3-nitrophenyl)thieno[2,3-b]pyridine-5-carboxylate] as the compound, how does the “Anticonvulsive effect (maximum), at 10-80 mg/kg” value ([4]; oral, 10-80 mg/kg, one hour before ultrasonic treatment) read?
The value was 30%.

And the “anticonvulsive effect (general statement)” value [4, 8]?
The value was “less than 40%”.

What does the source list for `COC(=O)C1=C(C)Nc2scc(CC(C)C)c2[C@H]1c1cccc([N+](=O)[O-])c1` [S-312-d, methyl (+)-(4S)-4,7-dihydro-3-isobutyl-6-methyl-4-(3-nitrophenyl)thieno[2,3-b]pyridine-5-carboxylate]?
protection of cerebral neurons against ischemic necrosis ([7]; pretreatment i.p., Table 2): significantly effective for the protection of cerebral neurons against ischemic necrosis of cells; Density of Neurons, animals with 40-80 n/mm [7, 9]: 4; Density of Neurons, animals with 80-120 n/mm [7, 9]: 2; Density of Neurons, animals with <40 n/mm [7, 9]: 3; Density of Neurons, animals with >120 n/mm [7, 9]: 3; Density of Neurons, mean ± S.E.M ([7]; treated group (I), 0.01 mg/kg i.p., n = 12, p < 0.01 vs normal group): 73 ± 12 n/mm; Density of Neurons, animals with 40-80 n/mm [7, 10]: 1; Density of Neurons, animals with 80-120 n/mm [7, 10]: 4; Density of Neurons, animals with <40 n/mm [7, 10]: 2; Density of Neurons, animals with >120 n/mm [7, 10]: 6; Density of Neurons, mean ± S.E.M ([7]; treated group (II), 0.1 mg/kg i.p., n = 13, p < 0.01 vs control group): 114 ± 17 n/mm; effect on the normal resting release of glutamate [6]: not the normal resting release; also recorded: without affecting the normal resting release of glutamate; also recorded: not the normal cerebral release of glutamate; inhibition of the massive release of glutamate during BCAO [6]: only S-312-d was significantly effective; also recorded: inhibited the massive release of glutamate during BCAO; also recorded: inhibits specifically the massive release of glutamate during cerebral ischemia; also recorded: inhibiting specifically a massive release of cerebral glutamate from hippocampus; inhibition of the massive release of glutamate during BCAO ([6]; listed as S-312-2): the massive release of cerebral glutamate; antihypertensive, peripheral, cerebral and coronary vasodilating actions [1]: exhibit antihypertensive activity, as well as peripheral, cerebral, and coronary vasodilating actions; Ca-blocking effect on vascular smooth muscle [2]: selective Ca-blocking effect on vascular smooth muscle; ED50 ([4]; oral): 17.6 mg/kg; anti-convulsant effect, in words [4]: inhibits sound-induced convulsion in DBA/2 mouse; also recorded: dose-dependent anti-convulsant effect; also recorded: potent inhibitory effect on a convulsion induced by sound stimulation in DBA/2 mice; anti-convulsant effect, in words ([4]; listed as S-312-2): inhibit the both of a) the sound-induced convulsion

For `COC(=O)C1=C(C#N)NC(C)=C(C(=O)OC(C)C)C1c1cccc([N+](=O)[O-])c1` (stereo not shown) [nilvadipine, reference compound], which “inhibition of the massive release of glutamate during BCAO” value [6] is on record?
The value was “only S-312-d was significantly effective; also recorded: neither nilvadipine nor nimodipine shows significant effect”.
